Literature values as cited in patent US20090275559A1, “Chronotherapeutic formulations of modified-release calcium channel blocker anti-hypertensive drugs in combination with other anti-hypertensive drugs for 24-hour optimal treatment of hypertension, nocturnal hypertension, and/or hypertension with angina” (Blue Note Pharmaceuticals, Inc., priority 2008, published 2009).

Key:
[1] = low pHs (0.1 N HCl)
[2] = extensive first-pass metabolism in the liver

water solubility [1] | plasma half-life [2] [h] | Compound
low |  | CCCCC1=NC2(CCCC2)C(=O)N1Cc1ccc(-c2ccccc2-c2nnn[nH]2)cc1 [Irbesartan]
 | 2 to 6 | COc1ccc([C@@H]2Sc3ccccc3N(CCN(C)C)C(=O)[C@@H]2OC(C)=O)cc1 [diltiazem]
